Source: US20240158446A1, “CYCLIC COMPOUND HAVING SELECTIVE INHIBITORY ACTION ON KRAS OVER HRAS AND NRAS” (CHUGAI SEIYAKU KABUSHIKI KAISHA, priority 2021, published 2024)
Like-named read-outs stand apart in the source and are kept apart here. Where a SMILES comes first, the peptide text is derived from it. Bridges are numbered along the chain shown (N, C = ends). [ ]: non-standard residue; d: D form. The star is where a group is joined. hPhe(3,5-F2-4-CF3) = N[C@@H](CCc1cc(F)c(C(F)(F)F)c(F)c1)C(=O)O; NPrPhe(4-CF3) = CCCN[C@@H](Cc1ccc(C(F)(F)F)cc1)C(=O)O; NMeGly(cPent) = CN[C@H](C(=O)O)C1CCCC1; NMeD = CN[C@@H](CC(=O)O)C(=O)O; NMeL = CN[C@@H](CC(C)C)C(=O)O; αMeV = CC(C)[C@](C)(N)C(=O)O; Morpholide = C1CN(*)CCO1; Sar = CNCC(=O)O

What was measured:
[1] = biological target: GDP-bound KRAS wild-type protein (Homo sapiens, UniProt P01116); assay: Binding to KRAS by surface plasmon resonance (SPR), Single Cycle Kinetics; settings: GDP-bound KRAS wild-type protein, read-out: KRAS KD
Sequence of GDP-bound KRAS wild-type protein (P01116 whole entry): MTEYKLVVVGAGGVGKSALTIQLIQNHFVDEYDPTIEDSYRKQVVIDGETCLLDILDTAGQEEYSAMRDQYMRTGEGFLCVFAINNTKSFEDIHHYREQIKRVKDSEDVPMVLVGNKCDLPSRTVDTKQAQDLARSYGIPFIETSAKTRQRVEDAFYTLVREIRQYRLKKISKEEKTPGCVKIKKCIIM

[2] = biological target: GDP-bound NRAS wild-type protein (Homo sapiens, UniProt P01111); assay: Binding to NRAS by surface plasmon resonance (SPR), Single Cycle Kinetics
Sequence of GDP-bound NRAS wild-type protein (P01111 whole entry): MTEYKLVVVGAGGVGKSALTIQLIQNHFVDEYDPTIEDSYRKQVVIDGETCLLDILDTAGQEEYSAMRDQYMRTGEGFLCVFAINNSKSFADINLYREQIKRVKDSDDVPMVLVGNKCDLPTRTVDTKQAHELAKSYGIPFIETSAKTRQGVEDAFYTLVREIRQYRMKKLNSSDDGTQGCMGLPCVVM

[3] = biological target: GDP-bound HRAS wild-type protein (Homo sapiens, UniProt P01112); assay: Binding to HRAS by surface plasmon resonance (SPR), Single Cycle Kinetics
Sequence of GDP-bound HRAS wild-type protein (P01112 whole entry): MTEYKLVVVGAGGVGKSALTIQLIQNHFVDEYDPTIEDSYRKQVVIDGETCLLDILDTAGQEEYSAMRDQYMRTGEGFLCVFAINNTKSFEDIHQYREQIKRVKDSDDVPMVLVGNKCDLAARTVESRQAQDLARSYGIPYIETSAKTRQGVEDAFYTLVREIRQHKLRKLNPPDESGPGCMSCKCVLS

[4] = tested on: human lung cancer strain NCI-H441;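 also: cell proliferation inhibition after four days measured by CellTiter-Glo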
[5] = SPR, GDP-bound NRAS wild-type protein vs GDP-bound KRAS wild-type protein
[6] = SPR, GDP-bound HRAS wild-type protein vs GDP-bound KRAS wild-type protein
[7] = SPR, Single Cycle Kinetics, 1:1 binding model
[8] = SPR, GDP-bound NRAS wild-type protein vs GDP-bound KRAS wild-type protein, KD ratio class
[9] = SPR, GDP-bound HRAS wild-type protein vs GDP-bound KRAS wild-type protein, KD ratio class
[10] = SPR Single Cycle Kinetics, 1:1 binding model

Kd ([1]; SPR, Single Cycle Kinetics) [nM] | IC50 [4] [nM] | Kd [1, 7] [nM] | Compound | NRAS/KRAS (ratio of KD value for NRAS to KD value for KRAS) [2, 5] | HRAS/KRAS (ratio of KD value for HRAS to KD value for KRAS) [3, 6] | NRAS/KRAS (ratio of KD value for NRAS to KD value for KRAS) [2, 8] | HRAS/KRAS (ratio of KD value for HRAS to KD value for KRAS) [3, 9] | other results
 | 54.3 | 0.33 | CCO[C@@H]1C[C@H]2C(=O)NC3(CCC3)C(=O)N(C)[C@@H](C3CCCC3)C(=O)N(C)[C@H](C(=O)N(C)C)CC(=O)N(C)[C@@H](CC(C)C)C(=O)N[C@@H]([C@@H](C)CC)C(=O)N(C)CC(=O)N(C)[C@H]3C/C=C\CCN(C3=O)[C@@H](Cc3ccc(C(F)(F)F)cc3)C(=O)N(C)CC(=O)N[C@@H](CCc3ccc4sccc4c3)C(=O)N2C1 [PP1257] |  |  | A (a compound having 10 or more and less than 20 is denoted as A) | A (a compound having 10 or more and less than 20 is denoted as A) | 
 | 76.8 | 0.44 | CCO[C@@H]1C[C@H]2C(=O)NC3(CCC3)C(=O)N(C)[C@@H](C3CCCC3)C(=O)N(C)[C@H](C(=O)N(C)C)CC(=O)N(C)[C@@H](CC3CCCC3)C(=O)N[C@@H]([C@@H](C)CC)C(=O)N(C)CC(=O)N(C)[C@H]3C/C=C\CCN(C3=O)[C@@H](Cc3ccc(C(F)(F)F)cc3)C(=O)N(C)CC(=O)N[C@@H](CCc3ccc4sccc4c3)C(=O)N2C1 [PP1261] |  |  | A (a compound having 10 or more and less than 20 is denoted as A) | A (a compound having 10 or more and less than 20 is denoted as A) | 
 | 5.1 | 0.077 | CCO[C@@H]1C[C@H]2C(=O)NC3(CCCC3)C(=O)N(C)[C@@H](C3CCCC3)C(=O)N(C)[C@H](C(=O)N3CCOCC3)CC(=O)N(C)[C@@H](CC)C(=O)N[C@@H]([C@@H](C)CC)C(=O)N(C)CC(=O)N(C)[C@H]3CC[C@@H](C)CN(C3=O)[C@@H](Cc3ccc(C(F)(F)F)cc3)C(=O)N(C)CC(=O)N[C@@H](CCc3cc(F)c(C(F)(F)F)c(F)c3)C(=O)N2C1 [PP1371] |  |  | A (a compound having 10 or more and less than 20 is denoted as A) | B (a compound having 3 or more and less than 10 is denoted as B) | 
 | 38.8 | 0.87 | CCO[C@@H]1C[C@H]2C(=O)NC3(CCC3)C(=O)N(C)[C@@H](C(CC)CC)C(=O)N(C)[C@H](C(=O)N(C)C)CC(=O)N(C)[C@@H](CC3CC3)C(=O)N[C@@H]([C@@H](C)CC)C(=O)N(C)CC(=O)N(C)[C@H]3C/C=C\CCN(C3=O)[C@@H](CC3CCCCC3)C(=O)N(C)CC(=O)N[C@@H](CCc3cc(F)c(C(F)(F)F)c(F)c3)C(=O)N2C1 [PP1428] |  |  | AA (a compound having 20 or more is denoted as AA) | A (a compound having 10 or more and less than 20 is denoted as A) | 
 | 36.6 | 0.19 | CCO[C@@H]1C[C@H]2C(=O)NC3(CCCC3)C(=O)N(C)[C@@H](C3CCCC3)C(=O)N(C)[C@H](C(=O)N(C)C)CC(=O)N(C)[C@@H](CC(C)C)C(=O)N[C@@H]([C@@H](C)CC)C(=O)N(C)CC(=O)N(C)[C@H]3C/C=C\CCN(C3=O)[C@@H](CC3CCCCC3)C(=O)N(C)CC(=O)N[C@@H](CCc3cc(F)c(C(F)(F)F)c(F)c3)C(=O)N2C1 [PP1473] |  |  | A (a compound having 10 or more and less than 20 is denoted as A) | A (a compound having 10 or more and less than 20 is denoted as A) | 
0.06 | 10.4 |  | CCO[C@@H]1C[C@H]2C(=O)NC3(CCC3)C(=O)N(C)[C@@H](C3CCCC3)C(=O)N(C)[C@H](C(=O)N(C)C)CC(=O)N(C)[C@@H](CC3CCCC3)C(=O)N[C@@H]([C@@H](C)CC)C(=O)N(C)CC(=O)N(C)[C@H]3C/C=C\CCN(C3=O)[C@@H](Cc3ccc(C(F)(F)F)cc3)C(=O)N(C)CC(=O)N[C@@H](CCc3cc(F)c(C(F)(F)F)c(F)c3)C(=O)N2C1 [PP1112, (2S,8S,12R,14S,20S,23S,27S,30S,36S,38Z)-20-cyclopentyl-27-(cyclopentylmethyl)-8-[2-[3,5-difluoro-4-(trifluoromethyl)phenyl]ethyl]-12-ethoxy-N,N,4,19,22,26,32,35-octamethyl-30-[(1S)-1-methylpropyl]-3,6,9,15,18,21,25,28,31,34,42-undecaoxo-2-[[4-(trifluoromethyl)phenyl]methyl]spiro[1,4,7,10,16,19,22,26,29,32,35-undecazatricyclo[34.5.1.0^10,14]dotetracont-38-ene-17,1′-cyclobutane]-23-carboxamide] | A (a compound having 10 or more and less than 20 is denoted as A) | B (a compound having 3 or more and less than 10 is denoted as B) |  |  | 

The remaining lines, values behind:

Compound | Kd ([1]; SPR, Single Cycle Kinetics) [nM] | IC50 [4] [nM] | Kd [1, 7] [nM] | NRAS/KRAS (ratio of KD value for NRAS to KD value for KRAS) [2, 5] | HRAS/KRAS (ratio of KD value for HRAS to KD value for KRAS) [3, 6] | NRAS/KRAS (ratio of KD value for NRAS to KD value for KRAS) [2, 8] | HRAS/KRAS (ratio of KD value for HRAS to KD value for KRAS) [3, 9] | other results
CCO[C@@H]1C[C@H]2C(=O)NC3(CCC3)C(=O)N(C)[C@@H](C3CCCC3)C(=O)N(C)[C@H](C(=O)N3CCOCC3)CC(=O)N(C)[C@@H](Cc3cccc(C)c3)C(=O)N[C@@H]([C@@H](C)CC)C(=O)N(C)CC(=O)N(C)[C@H]3CCCCCN(C3=O)[C@@H](Cc3ccc(C(F)(F)F)cc3)C(=O)N(C)CC(=O)N[C@@H](CCc3cc(F)c(C(F)(F)F)c(F)c3)C(=O)N2C1 [PP0932] | 2.9 | 158 |  | B (a compound having 3 or more and less than 10 is denoted as B) | B (a compound having 3 or more and less than 10 is denoted as B) |  |  | 
CC[C@H](C)[C@@H]1NC(=O)[C@H](COC)N(C)C(=O)C[C@@H](C(=O)N(C)C)N(C)C(=O)[C@H](C2CCCC2)N(C)C(=O)C2(CC(C)(C)C2)NC(=O)[C@@H]2C[C@@H](OC3CCC3)CN2C(=O)[C@H](CCc2ccc(Cl)c(Cl)c2)NC(=O)CN(C)C(=O)[C@H](CC2CCC(F)(F)CC2)N2CC/C=C\C[C@@H](C2=O)N(C)C(=O)CN(C2CC2)C1=O [PP2624] |  | 174 |  |  |  |  |  | Kd [1, 10]: 1.3 nM; NRAS/KRAS (ratio of KD value with respect to GDP-bound NRAS wild-type protein to KD value with respect to KRAS) ([2]; SPR KD ratio NRAS/KRAS, class symbols): A (a compound having 10 or more and less than 20 is denoted as A); HRAS/KRAS (ratio of KD value with respect to GDP-bound HRAS wild-type protein to KD value with respect to KRAS) ([3]; SPR KD ratio HRAS/KRAS, class symbols): A (a compound having 10 or more and less than 20 is denoted as A)
C#CCN1CC(=O)N(C)[C@H]2C/C=C\CCN(C2=O)[C@@H](Cc2ccc(C)cc2)C(=O)N(C)CC(=O)N[C@@H](CCc2ccc(C(F)(F)F)c(OC)c2)C(=O)N2C[C@H](OCC)C[C@H]2C(=O)NC2(CC(C)(C)C2)C(=O)N(C)[C@@H](C2CCCC2)C(=O)N(C)[C@H](C(=O)N(C)C)CC(=O)N(C)[C@@H](CCC)C(=O)N[C@@H](CC(C)C)C1=O [PP2514] | 2.4 | 86.8 |  | A (a compound having 10 or more and less than 20 is denoted as A) | B (a compound having 3 or more and less than 10 is denoted as B) |  |  | 
CCCN1C(=O)CN(C)C(=O)CN(C)C(=O)[C@H]([C@@H](C)CC)NC(=O)[C@H](CC(C)C)N(C)C(=O)C[C@@H](C(=O)N2CCOCC2)N(C)C(=O)[C@H](C2CCCC2)N(C)C(=O)[C@](C)(C(C)C)NC(=O)[C@@H]2CCCN2C(=O)[C@H](CCc2cc(F)c(C(F)(F)F)c(F)c2)NC(=O)CN(C)C(=O)[C@@H]1Cc1ccc(C(F)(F)F)cc1 [PP0756] ([NMeL]I[Sar][Sar][NPrPhe(4-CF3)][Sar][hPhe(3,5-F2-4-CF3)]P[αMeV][NMeGly(cPent)][NMeD]-Morpholide; lactam N-11) |  | 69.5 |  |  |  |  |  | Kd [1, 10]: 0.87 nM; NRAS/KRAS (ratio of KD value with respect to NRAS to KD value with respect to KRAS) [2, 5]: B (a compound having 3 or more and less than 10 is denoted as B); HRAS/KRAS (ratio of KD value with respect to HRAS to KD value with respect to KRAS) [3, 6]: B (a compound having 3 or more and less than 10 is denoted as B)
CCCO[C@@H]1C[C@H]2C(=O)NC3(CC(C)(C)C3)C(=O)N(C)[C@@H](C3CCCC3)C(=O)N(C)[C@H](C(=O)N(C)CC)CC(=O)N(C)[C@H]3CCCc4ccc(cc4)C[C@@H](C(=O)N(C)CC(=O)N[C@@H](CCc4ccc(C(F)(F)F)c(OC)c4)C(=O)N2C1)N1CC/C=C\C[C@@H](C1=O)N(C)C(=O)CN(C1CC1)C(=O)[C@H]([C@@H](C)CC)NC3=O [PP3088] | 0.34 |  |  | B (a compound having 3 or more and less than 10 is denoted as B) | B (a compound having 3 or more and less than 10 is denoted as B) |  |  | ratio of the KD value with respect to GDP-bound NRAS wild-type protein to the KD value with respect to KRAS ([2]; SPR, KD(NRAS)/KD(KRAS)): B (a compound having 3 or more and less than 10 is denoted as B); ratio of the KD value with respect to GDP-bound HRAS wild-type protein to the KD value with respect to KRAS ([3]; SPR, KD(HRAS)/KD(KRAS)): B (a compound having 3 or more and less than 10 is denoted as B); IC50 ([4]; read-out: NCI-H441 cell proliferation inhibitory activity, 50% proliferation inhibitory concentration (IC50 value), NCI-H441, four days, CellTiter-Glo): 15.1 nM
